Patent US20110212078A1, “SYNTHESIS AND USE OF HETEROCYCLIC ANTIBACTERIAL AGENTS” (priority 2008, published 2011)

biological target: T1, LpxC enzyme (Escherichia coli, UniProt P0A725); test: standard LpxC assay (RapidFire high-throughput mass spectrometry); type: biochemical; conditions: 0.2 nM LpxC enzyme, 1.0 μM UDP-3-O-(R-3-hydroxymyristoyl)-N-acetylglucosamine, 60 minutes at room temperature; read-out: E. coli IC50
T1 sequence (P0A725 1-305): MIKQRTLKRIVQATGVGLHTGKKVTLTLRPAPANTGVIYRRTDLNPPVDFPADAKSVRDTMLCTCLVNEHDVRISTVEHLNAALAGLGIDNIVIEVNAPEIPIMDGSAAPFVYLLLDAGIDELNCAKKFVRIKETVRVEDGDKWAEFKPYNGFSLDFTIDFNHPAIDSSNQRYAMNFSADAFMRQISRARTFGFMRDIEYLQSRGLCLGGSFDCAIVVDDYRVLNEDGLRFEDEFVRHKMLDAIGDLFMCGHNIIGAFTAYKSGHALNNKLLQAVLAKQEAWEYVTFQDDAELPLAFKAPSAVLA
Experimental: The standard LpxC assay consists of 0.2 nM LpxC enzyme, 1.0 μM UDP-3-O—(R-3-hydroxymyristoyl)-N-acetylglucosamine, and test compound, in assay buffer and 2% DMSO. Assay buffer is comprised of 25 mM HEPES, pH 7.3, 150 mM NaCl, 2.0 mM DTT, and 0.01% BSA. The enzyme reaction is carried out in a 96-well assay plate, in a final volume of […]. Solutions of test compounds are prepared in 100% DMSO. Reaction additions, in order, are (1) 2.0 μL compound solution, (2) 80 μL of assay buffer, (3) […] of 10 μM UDP-3-O—(R-3-hydroxymyristoyl)-N-acetylglucosamine (in assay buffer) and, (4) 10 μL of LpxC enzyme (20 nM in assay buffer) to initiate the reaction. In positive control reactions, addition (1) has 2.0 μL of 100% DMSO (without compound); these reactions are used as the total signal (TSB) value. Reactions are incubated at room temperature for 60 minutes when 10 μL of 1 N HCl is added to stop the reaction. The plate is shaken by hand for 10 seconds to ensure complete quenching. Assay plates are sealed with foil tape, and stored at −80° C. for 24-48 hr prior to analysis.
The concentrations of substrate and product in the reaction mixtures are determined with BioTrove's proprietary RapidFire™ high-throughput mass spectrometry (HTMS). Assay mixtures are partially purified with reverse phase chromatography, where they are washed with water containing 5 mM ammonium formate and eluted onto the mass spectrometer in 80% acetonitrile, 20% water, and 5 mM ammonium formate. The mass spectrometry peak areas of the substrate and product are measured to determine the concentration of these analytes. The assay signal is the percentage of substrate that is converted to product. Percent inhibition, % I, in test samples is determined from the following equation: […]
Using this method, the following E. coli IC50 (nM) data were obtained for selected Compounds of Formula (I);

Row | Structure (SMILES) | IC50
1 | C[C@@H](O)[C@@H](C(=O)NO)N1Cc2ccc(Cl)cc2C1=O [Compound 21] | < 5 µM
2 | C[C@@H](O)[C@@H](C(=O)NO)N1Cc2cc(C#Cc3cccc(-c4ccccc4)c3)ccc2C1=O [Compound 14] | < 5 µM
3 | C[C@@H](O)[C@@H](C(=O)NO)N1Cc2cc(-c3ccccc3)ccc2C1=O [Compound 26] | < 5 µM
4 | CC(O)C(C(=O)NO)n1[nH]c2cc(C#Cc3ccccc3)ccc2c1=O (stereo not shown) [Compound 65] | < 5 µM
5 | CC(O)C(C(=O)NO)N1C(=O)c2ccc(-c3ccccc3)cc2C1=O (stereo not shown) [Compound 79] | < 5 µM
6 | CC(O)C(C(=O)NO)N1C(=O)c2ccc(Br)cc2C1=O (stereo not shown) [Compound 80] | < 5 µM
7 | C[C@@H](O)[C@@H](C(=O)NO)N1Cc2cc(-c3ccc(C#Cc4ccccc4)cc3)ccc2C1=O [Compound 36] | < 0.05 µM
8 | C[C@@H](O)[C@@H](C(=O)NO)N1Cc2ccc(C#Cc3ccccc3)cc2C1=O [Compound 20] | < 5 µM
9 | C[C@@H](O)[C@@H](C(=O)NO)N1Cc2cc(N3CCN(c4ccccc4)CC3)ccc2C1=O [Compound 52] | < 5 µM
10 | C[C@@H](O)[C@@H](C(=O)NO)N1Cc2cc(N3CCC(c4ccc(-c5ccccc5)cc4)CC3)ccc2C1=O [Compound 53] | < 5 µM
11 | CC(O)C(C(=O)NO)N1C(=O)c2ccc(C#Cc3ccccc3)cc2C1=O (stereo not shown) [Compound 74] | < 5 µM
12 | C[C@@H](O)[C@@H](C(=O)NO)N1Cc2cc(Br)ccc2C1=O [Compound 12] | < 5 µM
13 | C[C@@H](O)[C@@H](C(=O)NO)N1Cc2cc(-c3ccc(-c4ccccc4)cc3)ccc2C1=O [Compound 32] | < 0.05 µM
14 | C[C@@H](O)[C@@H](C(=O)NO)N1CC2CN(c3ccc(C#Cc4ccccc4)cc3)CCN2C1=O (stereo partly shown) [Compound 91] | < 5 µM
15 | C[C@@H](O)[C@@H](C(=O)NO)N1CC2CN(Cc3ccc(C#Cc4ccccc4)cc3)CCN2C1=O (stereo partly shown) [Compound 88] | < 5 µM
16 | C[C@@H](O)[C@@H](C(=O)NO)N1Cc2cc(N3CCN(c4ccc(C(=O)Cc5ccccc5)cc4)CC3)ccc2C1=O [Compound 50] | < 5 µM
17 | C[C@@H](O)[C@@H](C(=O)NO)N1Cc2cc(C#Cc3ccc(-c4ccccc4)cc3)ccc2C1=O [Compound 13] | < 0.05 µM
18 | C[C@@H](O)[C@@H](C(=O)NO)N1Cc2cc(C#Cc3ccccc3)ccc2C1=O [Compound 11] | < 5 µM
19 | C[C@@H](O)[C@@H](C(=O)NO)N1Cc2cc(Cc3ccc(-c4ccccc4)cc3)ccc2C1=O [Compound 31] | < 0.05 µM
